Peptide text beside a SMILES is read from it. * marks the point of attachment. Dansyl = CN(C)c1cccc2c(S(=O)(=O)*)cccc12
Target: T1, N-SH3 D141A (Crkl) (Homo sapiens, UniProt P46109, D141A)
T1 construct: The construct encoding the N-SH3 domain of Crkl was subcloned in a pET28b+ plasmid vector; His-tag; made in house; host or cells: E. coli BL21
Test: Stopped-flow displacement, N-SH3 D141A:dansyl-C3G277–296 complex
Format: binding
Details: Hepes 50 mM pH 7.0 + 20% w/v sucrose, 10 °C
Method: To further investigate this aspect, we resorted to performing displacement experiments, targeted to the direct calculation of microscopic dissociation rate constant koff. […] To test this and to slow down the diffusion of molecules, we repeated the experiment increasing the viscosity of the solution adding 20% w/v sucrose to the buffer Hepes 50 mM pH 7.0. Although the trace was satisfactorily fitted with a single-exponential equation, the koff calculated is 800 ± 30 s^−1, a value that is far beyond the resolution capability of the stopped-flow, a consistent part of the reaction occurring in the dead time of the instrument. Based on the calculated affinity of D141A variant for C3G in the absence of sucrose, this dramatic increase in koff might be accompanied by a strong increase in kon.
Kinetic binding experiments were performed on a single-mixing SX-18 stopped-flow instrument (Applied Photophysics), by mixing a constant concentration (0.5 μM) of C3G dansylated versus increasing concentrations of N-SH3 at 10 °C. Ionic strength dependence of wt N-SH3 was performed with concentrations ranging from 1 to 5 µM for 0 M NaCl condition and from 0.5 to 5 µM for 0.15 M, 0.3 M, 0.5 M and 1 M NaCl, buffer Hepes 50 mM pH 7.0. The excitation wavelength was 280 nm, and fluorescence was collected using a 455 nm cut-off filter. […]

T1 sequence (P46109 123-183 D141A limits assumed): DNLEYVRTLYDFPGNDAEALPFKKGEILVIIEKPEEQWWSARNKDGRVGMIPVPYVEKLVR

- koff: 800 ± 30 s⁻¹
Structure (SMILES): CC(C)C[C@H](NC(=O)[C@H](C)NC(=O)[C@@H]1CCCN1C(=O)[C@@H]1CCCN1C(=O)[C@@H]1CCCN1C(=O)[C@H](CO)NC(=O)[C@H](CC(N)=O)NC(=O)[C@H](CC(=O)O)NC(=O)[C@@H](NC(=O)[C@@H](NS(=O)(=O)c1cccc2c(N(C)C)cccc12)C(C)C)C(C)C)C(=O)N1CCC[C@H]1C(=O)N1CCC[C@H]1C(=O)N[C@@H](CCCCN)C(=O)N[C@@H](CCCCN)C(=O)N[C@@H](CCCNC(=N)N)C(=O)N[C@@H](CCC(N)=O)C(=O)N[C@@H](CO)C(=O)N[C@@H](C)C(=O)N1CCC[C@H]1C(=O)N[C@@H](CO)C(=O)O [dansyl-C3G277–296] (Dansyl-VVDNSPPPALPPKKRQSAPS-OH)

— article PMC8705818, “Experimental Characterization of the Interaction between the N-Terminal SH3 Domain of Crkl and C3G” (International Journal of Molecular Sciences, 2021)
